Laboratory results as given in ChEMBL document CHEMBL3885861, “Open TG-GATES”.

Species on record: Rattus norvegicus
Experiment: Open TG-GATES - Regimen: Daily Repeat
Type: toxicity, organism-based, Sprague-Dawley
Set-up: regimen Daily Repeat, gender Male, age 6 weeks
Details: in vivo, po, 300 mg/kg, route gavage, dose level High; for Bas / Eos / Fbg / Hb / Ht / Lym / MCH / MCV / Mono / Neu / PT / Plat / RBC / Ret / WBC / APTT: tissue Blood; for KIDNEY_L / KIDNEY_R / KIDNEY_TOTAL: tissue Kidney; for LIVER: tissue Liver; for ALP / ALT / AST / BUN / CRE / Ca / Cl / DBIL / GLC / IP / K / LDH / Na / PL / RALB / TBIL / TC / TP / gamma-GTP: tissue Plasma

NC(=O)N1c2ccccc2C=Cc2ccccc21 [CARBAMAZEPINE]
Bas (72 h, time 3 day): 0% | Eos (72 h, time 3 day): 1.2% | Fbg (72 h, time 3 day): 203 mg/dL | Hb (72 h, time 3 day): 13.7 g/dL | Ht (72 h, time 3 day): 40.1% | Lym (72 h, time 3 day): 83.6% | MCH (72 h, time 3 day): 20.9 pg | MCV (72 h, time 3 day): 61 fL | Mono (72 h, time 3 day): 2.6% | Neu (72 h, time 3 day): 11.4% | PT (72 h, time 3 day): 11.8 s | Plat (72 h, time 3 day): 131.3 x10_4/uL | RBC (72 h, time 3 day): 657.8 x10_4/ul | Ret (72 h, time 3 day): 3.6% | WBC (72 h, time 3 day): 92.4 x10_2/uL | KIDNEY_L (72 h, time 3 day): 1.1 g | KIDNEY_R (72 h, time 3 day): 1 g | KIDNEY_TOTAL (72 h, time 3 day): 2.1 g | LIVER (72 h, time 3 day): 13.1 g | ALP (72 h, time 3 day): 978.4 IU/L | ALT (72 h, time 3 day): 40.2 IU/L | AST (72 h, time 3 day): 57.2 IU/L | BUN (72 h, time 3 day): 14 mg/dL | CRE (72 h, time 3 day): 0.4 mg/dL | Ca (72 h, time 3 day): 10.9 mg/dL | Cl (72 h, time 3 day): 103.2 meq/L | DBIL (72 h, time 3 day): 0.08 mg/dL | GLC (72 h, time 3 day): 199.4 mg/dL | IP (72 h, time 3 day): 6.8 mg/dL | K (72 h, time 3 day): 3.4 meq/L | LDH (72 h, time 3 day): 217.4 IU/L | Na (72 h, time 3 day): 140.6 meq/L | PL (72 h, time 3 day): 150.4 mg/dL | RALB (72 h, time 3 day): 3.4 g/dL | TBIL (72 h, time 3 day): 0.1 mg/dL | TC (72 h, time 3 day): 79.2 mg/dL | TP (72 h, time 3 day): 5.6 g/dL | gamma-GTP (72 h, time 3 day): 1.2 IU/L | TERMINAL_BW ([…], time 7 day): 253.9 g | TERMINAL_BW ([…], time 14 day): 309.3 g | TERMINAL_BW ([…], time 28 day): 374.6 g | APTT ([…], time 7 day): 21.5 s | Bas ([…], time 7 day): 0% | Eos ([…], time 7 day): 0.6% | Fbg ([…], time 7 day): 224.6 mg/dL | Hb ([…], time 7 day): 13.1 g/dL | Ht ([…], time 7 day): 38.8% | Lym ([…], time 7 day): 79.8% | MCH ([…], time 7 day): 20.5 pg | MCV ([…], time 7 day): 60.5 fL | Mono ([…], time 7 day): 2.4% | Neu ([…], time 7 day): 15.8% | PT ([…], time 7 day): 11.9 s | Plat ([…], time 7 day): 130.9 x10_4/uL | RBC ([…], time 7 day): 641.2 x10_4/ul | Ret ([…], time 7 day): 4.1% | WBC ([…], time 7 day): 127.4 x10_2/uL | APTT ([…], time 14 day): 22.3 s | Bas ([…], time 14 day): 0% | Eos ([…], time 14 day): 0.4% | Fbg ([…], time 14 day): 209.2 mg/dL | Hb ([…], time 14 day): 14.2 g/dL | Ht ([…], time 14 day): 41.2% | Lym ([…], time 14 day): 82.2% | MCH ([…], time 14 day): 20.6 pg | MCV ([…], time 14 day): 59.8 fL | Mono ([…], time 14 day): 2.4% | Neu ([…], time 14 day): 13.6% | PT ([…], time 14 day): 12.2 s | Plat ([…], time 14 day): 128.7 x10_4/uL | RBC ([…], time 14 day): 689.4 x10_4/ul | Ret ([…], time 14 day): 4.7% | WBC ([…], time 14 day): 149.2 x10_2/uL | APTT ([…], time 28 day): 22.9 s | Bas ([…], time 28 day): 0% | Eos ([…], time 28 day): 1% | Fbg ([…], time 28 day): 225.4 mg/dL | Hb ([…], time 28 day): 15.2 g/dL | Ht ([…], time 28 day): 43.4% | Lym ([…], time 28 day): 87.2% | MCH ([…], time 28 day): 19.6 pg | MCV ([…], time 28 day): 56 fL | Mono ([…], time 28 day): 2.2% | Neu ([…], time 28 day): 8.8% | PT ([…], time 28 day): 12.2 s | Plat ([…], time 28 day): 106.2 x10_4/uL | RBC ([…], time 28 day): 776.2 x10_4/ul | Ret ([…], time 28 day): 2.1% | WBC ([…], time 28 day): 142.7 x10_2/uL | KIDNEY_L ([…], time 7 day): 1.2 g | KIDNEY_R ([…], time 7 day): 1.1 g | KIDNEY_TOTAL ([…], time 7 day): 2.3 g | KIDNEY_L ([…], time 14 day): 1.3 g | KIDNEY_R ([…], time 14 day): 1.3 g | KIDNEY_TOTAL ([…], time 14 day): 2.7 g | KIDNEY_L ([…], time 28 day): 1.4 g | KIDNEY_R ([…], time 28 day): 1.4 g | KIDNEY_TOTAL ([…], time 28 day): 2.8 g | LIVER ([…], time 7 day): 14.2 g | LIVER ([…], time 14 day): 17.8 g | LIVER ([…], time 28 day): 19.5 g | ALP ([…], time 7 day): 803.4 IU/L | ALT ([…], time 7 day): 41.6 IU/L | AST ([…], time 7 day): 64.8 IU/L | BUN ([…], time 7 day): 15.4 mg/dL | CRE ([…], time 7 day): 0.4 mg/dL | Ca ([…], time 7 day): 10.7 mg/dL | Cl ([…], time 7 day): 101.8 meq/L | DBIL ([…], time 7 day): 0.098 mg/dL | GLC ([…], time 7 day): 212.6 mg/dL | IP ([…], time 7 day): 7 mg/dL | K ([…], time 7 day): 3.9 meq/L | LDH ([…], time 7 day): 261.2 IU/L | Na ([…], time 7 day): 139.6 meq/L | PL ([…], time 7 day): 174.4 mg/dL | RALB ([…], time 7 day): 3.6 g/dL | TBIL ([…], time 7 day): 0.1 mg/dL | TC ([…], time 7 day): 91.2 mg/dL | TP ([…], time 7 day): 6.1 g/dL | gamma-GTP ([…], time 7 day): 1.4 IU/L | ALP ([…], time 14 day): 774.4 IU/L | ALT ([…], time 14 day): 38.6 IU/L | AST ([…], time 14 day): 62.8 IU/L | BUN ([…], time 14 day): 17.5 mg/dL | CRE ([…], time 14 day): 0.5 mg/dL | Ca ([…], time 14 day): 11 mg/dL | Cl ([…], time 14 day): 101 meq/L | DBIL ([…], time 14 day): 0.1 mg/dL | GLC ([…], time 14 day): 193.4 mg/dL | IP ([…], time 14 day): 7.2 mg/dL | K ([…], time 14 day): 3.9 meq/L | LDH ([…], time 14 day): 192 IU/L | Na ([…], time 14 day): 140.8 meq/L | PL ([…], time 14 day): 170.4 mg/dL | RALB ([…], time 14 day): 3.5 g/dL | TBIL ([…], time 14 day): 0.2 mg/dL | TC ([…], time 14 day): 89 mg/dL | TP ([…], time 14 day): 6.4 g/dL | gamma-GTP ([…], time 14 day): 0.6 IU/L | ALP ([…], time 28 day): 555 IU/L | ALT ([…], time 28 day): 39.8 IU/L | AST ([…], time 28 day): 55 IU/L | BUN ([…], time 28 day): 20.4 mg/dL | CRE ([…], time 28 day): 0.5 mg/dL | Ca ([…], time 28 day): 10.6 mg/dL | Cl ([…], time 28 day): 101.4 meq/L | DBIL ([…], time 28 day): 0.09 mg/dL | GLC ([…], time 28 day): 226 mg/dL | IP ([…], time 28 day): 6.4 mg/dL | K ([…], time 28 day): 3.6 meq/L | LDH ([…], time 28 day): 218.2 IU/L | Na ([…], time 28 day): 140.6 meq/L | PL ([…], time 28 day): 180.8 mg/dL | RALB ([…], time 28 day): 3.7 g/dL | TBIL ([…], time 28 day): 0.1 mg/dL | TC ([…], time 28 day): 93.8 mg/dL | TP ([…], time 28 day): 6.5 g/dL | gamma-GTP ([…], time 28 day): 1.2 IU/L
